Patent US11591355B2 (Peloton Therapeutics, Inc., priority 2017, dated 2023)
pIC50: −log10 of the molar value.

What was measured:
[1] = biological target: T1, Human CD73 (Homo sapiens, UniProt P21589); assay: CD73 Enzyme Assay; assay type: biochemical; conditions: 0.25 nM hCD73, 25 μM AMP, kinetic read at 360 nm; read-out: CD73 Enzyme Assay IC50
T1 construct: purchased R&D Systems; host or cells: CHO cells
T1 sequence (P21589 27-549): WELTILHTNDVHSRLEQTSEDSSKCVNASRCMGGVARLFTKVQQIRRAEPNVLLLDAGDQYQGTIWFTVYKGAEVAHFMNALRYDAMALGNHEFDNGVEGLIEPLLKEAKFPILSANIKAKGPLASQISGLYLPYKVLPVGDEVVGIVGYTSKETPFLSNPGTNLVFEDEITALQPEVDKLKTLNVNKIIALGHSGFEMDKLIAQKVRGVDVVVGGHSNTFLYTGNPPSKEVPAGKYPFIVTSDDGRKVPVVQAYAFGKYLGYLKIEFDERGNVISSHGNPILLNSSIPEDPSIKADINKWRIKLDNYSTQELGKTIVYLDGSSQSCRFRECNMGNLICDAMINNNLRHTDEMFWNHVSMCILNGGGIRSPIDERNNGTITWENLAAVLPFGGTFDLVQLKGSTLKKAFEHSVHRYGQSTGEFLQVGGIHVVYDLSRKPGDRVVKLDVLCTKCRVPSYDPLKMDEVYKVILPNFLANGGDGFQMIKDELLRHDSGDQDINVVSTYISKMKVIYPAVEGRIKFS

[2] = biological target: T2, CD73 on U138 human neuroglioma cells (Homo sapiens, UniProt P21589); assay: CD73 Cell-Based Assay; conditions: U138 cells, AMP substrate, 2 hours at 37° C., inorganic phosphate by malachite green
T2 construct: U138 cells were obtained from ATCC and cultured in DMEM with 10% FBS; host or cells: U138 human neuroglioma cells
T2 sequence (P21589 27-549): T1 sequence (P21589 27-549)
Procedure, shortened: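 Whole U138 cells washed free of phosphate were incubated with 200 μM AMP (mixture concentration before equal-volume addition) plus compound in HEPES-buffered saline, pH 7.4, for 2 h at 37 °C, 5% CO2. Adenosine-forming activity read as inorganic phosphate released into supernatant by malachite green.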

SMILES	pIC50 [1]	pIC50 [2]
CC(C)C#Cc1nc(NC2CCCC2)c2ccn([C@@H]3O[C@H](COCP(=O)(O)O)[C@@H](O)[C@H]3O)c2n1 [Compound 253, [(2R,3S,4R,5R)-5-[4-(cyclopentylamino)-2-(3-methylbut-1-ynyl)pyrrolo[2,3-d]-pyrimidin-7-yl]-3,4-dihydroxy-tetrahydro-furan-2-yl]methoxy-methylphosphonic acid]	> 8.00	> 8.00
CC(C)(C)C#Cc1nc(NC2CCCC2)c2ccn([C@@H]3O[C@H](COCP(=O)(O)O)[C@@H](O)[C@H]3O)c2n1 [Compound 254, [(2R,3S,4R,5R)-5-[4-(cyclopentylamino)-2-(3,3-dimethylbut-1-ynyl)pyrrolo[2,3-d]-pyrimidin-7-yl]-3,4-dihydroxy-tetrahydro-furan-2-yl]methoxy-methylphosphonic acid]	6.00 to 7.00	6.00 to 7.00
O=P(O)(O)COC[C@H]1O[C@@H](n2ccc3c(NC4CCCC4)nc(C#CC4CC4)nc32)[C@H](O)[C@@H]1O [Compound 255, [(2R,3S,4R,5R)-5-[4-(cyclopentylamino)-2-(2-cyclopropyl-ethynyl)pyrrolo[2,3-d]-pyrimidin-7-yl]-3,4-dihydroxy-tetrahydro-furan-2-yl]methoxy-methylphosphonic acid]	> 8.00	> 8.00
C[C@H](O)C#Cc1nc(NC2CCCC2)c2ccn([C@@H]3O[C@H](COCP(=O)(O)O)[C@@H](O)[C@H]3O)c2n1 [Compound 256, [(2R,3S,4R,5R)-5-[4-(cyclopentylamino)-2-[(3S)-3-hydroxybut-1-ynyl]pyrrolo[2,3-d]-pyrimidin-7-yl]-3,4-dihydroxy-tetrahydro-furan-2-yl]methoxy-methylphosphonic acid]	> 8.00	> 8.00
O=P(O)(O)COC[C@H]1O[C@@H](n2ccc3c(NC4CCCC4)nc(OCCO)nc32)[C@H](O)[C@@H]1O [Compound 257, ((((2R,3S,4R,5R)-5-(4-(cyclopentylamino)-2-(2-hydroxyethoxy)-7H-pyrrolo[2,3-d]pyrimidin-7-yl)-3,4-dihydroxytetrahydrofuran-2-yl)methoxy)methyl)phosphonic acid]	> 8.00	> 8.00
O=P(O)(O)COC[C@H]1O[C@@H](n2ccc3c(NC4CCCC4)nc(OCCCO)nc32)[C@H](O)[C@@H]1O [Compound 258, [(2R,3S,4R,5R)-5-[4-(cyclopentylamino)-2-(3-hydroxypropoxy)-pyrrolo[2,3-d]pyrimidin-7-yl]-3,4-dihydroxy-tetrahydrofuran-2-yl]-methoxymethylphos-phonic acid]	7.00 to 8.00	> 8.00
COCCOc1nc(NC2CCCC2)c2ccn([C@@H]3O[C@H](COCP(=O)(O)O)[C@@H](O)[C@H]3O)c2n1 [Compound 260, [(2R,3S,4R,5R)-5-[4-(cyclopentylamino)-2-(2-methoxyethoxy)-pyrrolo[2,3-d]-pyrimidin-7-yl]-3,4-dihydroxy-tetrahydro-furan-2-yl]methoxy-methylphosphonic acid]	7.00 to 8.00	7.00 to 8.00
C[C@@H](O)COc1nc(NC2CCCC2)c2ccn([C@@H]3O[C@H](COCP(=O)(O)O)[C@@H](O)[C@H]3O)c2n1 [Compound 261, [(2R,3S,4R,5R)-5-[4-(cyclopentylamino)-2-[(2R)-2-hydroxy-propoxy]pyrrolo[2,3-d]pyrimidin-7-yl]-3,4-dihydroxy-tetrahydro-furan-2-yl]methoxy-methylphosphonic acid]	> 8.00	> 8.00
CCOc1nc(NC2CCCC2)c2ccn([C@@H]3O[C@H](COCP(=O)(O)O)[C@@H](O)[C@H]3O)c2n1 [Compound 262, [(2R,3S,4R,5R)-5-[4-(cyclopentylamino)-2-ethoxy-pyrrolo[2,3-d]-pyrimidin-7-yl]-3,4-dihydroxy-tetrahydro-furan-2-yl]methoxy-methylphosphonic acid]	7.00 to 8.00	7.00 to 8.00
CC(O)COc1nc(NC2CCCC2)c2ccn([C@@H]3O[C@H](COCP(=O)(O)O)[C@@H](O)[C@H]3O)c2n1 (stereo partly drawn) [Compound 263, [(2R,3S,4R,5R)-5-[4-(cyclopentylamino)-2-(2-hydroxypropoxy)-pyrrolo[2,3-d]pyrimidin-7-yl]-3,4-dihydroxy-tetrahydrofuran-2-yl]-methoxymethylphos-phonic acid]	> 8.00	> 8.00
C[C@H](Nc1nc(Cl)nc2c1cnn2[C@@H]1O[C@H](COCP(=O)(O)O)[C@@H](O)[C@H]1O)c1ccc(F)cc1 [Compound 265, [(2R,3S,4R,5R)-5-[6-chloro-4-[[(1S)-1-(4-fluorophenyl)ethyl]-amino]pyrazolo[3,4-d]-pyrimidin-1-yl]-3,4-dihydroxy-tetrahydro-furan-2-yl]methoxy-methylphosphonic acid]	7.00 to 8.00	7.00 to 8.00
CC#Cc1nc(NC2CCCC2)c2ccn([C@@H]3O[C@H](COCP(=O)(O)O)[C@@H](O)[C@H]3O)c2n1 [Compound 266, [(2R,3S,4R,5R)-5-[4-(cyclopentylamino)-2-prop-1-ynyl-pyrrolo-[2,3-d]pyrimidin-7-yl]-3,4-dihydroxy-tetrahydrofuran-2-yl]-methoxymethylphos-phonic acid]	> 8.00	> 8.00
C[C@@H](O)C#Cc1nc(NC2CCCC2)c2ccn([C@@H]3O[C@H](COCP(=O)(O)O)[C@@H](O)[C@H]3O)c2n1 [Compound 267, [(2R,3S,4R,5R)-5-[4-(cyclopentylamino)-2-[(3R)-3-hydroxybut-1-ynyl]pyrrolo[2,3-d]-pyrimidin-7-yl]-3,4-dihydroxy-tetrahydro-furan-2-yl]methoxy-methylphosphonic acid]	> 8.00	> 8.00
C[C@@H](Nc1nc(Cl)nc2c1cnn2[C@@H]1O[C@H](COCP(=O)(O)O)[C@@H](O)[C@H]1O)c1ccc(F)cc1 [Compound 269, [(2R,3S,4R,5R)-5-[6-chloro-4-[[(1R)-1-(4-fluorophenyl)ethyl]-amino]pyrazolo[3,4-d]-pyrimidin-1-yl]-3,4-dihydroxy-tetrahydro-furan-2-yl]methoxy-methylphosphonic acid]	7.00 to 8.00	> 8.00
O=P(O)(O)COC[C@H]1O[C@@H](n2ncc3c(NC4CCC4)nc(Cl)nc32)[C@H](O)[C@@H]1O [Compound 270, [(2R,3S,4R,5R)-5-[6-chloro-4-(cyclobutyl-amino)pyrazolo[3,4-d]-pyrimidin-1-yl]-3,4-dihydroxy-tetrahydro-furan-2-yl]methoxy-methylphosphonic acid]	> 8.00	> 8.00
O=P(O)(O)COC[C@H]1O[C@@H](n2ncc3c(NC4CC(F)(F)C4)nc(Cl)nc32)[C@H](O)[C@@H]1O [Compound 271, [(2R,3S,4R,5R)-5-[6-chloro-4-[(3,3-difluoro-cyclobutyl)amino]-pyrazolo[3,4-d]-pyrimidin-1-yl]-3,4-dihydroxy-tetrahydro-furan-2-yl]methoxy-methylphosphonic acid]	> 8.00	> 8.00
CC(C)(O)C#Cc1nc(NC2CCCC2)c2ccn([C@@H]3O[C@H](COCP(=O)(O)O)[C@@H](O)[C@H]3O)c2n1 [Compound 272, [(2R,3S,4R,5R)-5-[4-(cyclopentylamino)-2-(3-hydroxy-3-methyl-but-1-ynyl)pyrrolo[2,3-d]pyrimidin-7-yl]-3,4-dihydroxy-tetrahydro-furan-2-yl]methoxy-methylphosphonic acid]	7.00 to 8.00	> 8.00
